Reference: patent publication US7482348B2, “Piperazinyl substituted cyclohexane-1,4-diamines” (Janssen Pharmaceutica N.V., priority 2005, dated 2009)

Columns and labels:
[1] = tested on: α1a and α1d subtypes over the α1b subtype; conditions: cited from earlier work
[2] = biological target: T1, α1a-AR (Homo sapiens, UniProt P35348); experiment: α1-Adrenergic receptor radio-ligand (125I-HEAT) binding assay, α1a subtype; conditions: membranes of transfected COS-7 cells, 125I-HEAT 50 pM
T1 construct: expressed in transfected cells; host or cells: COS-7 (African green monkey kidney) membranes
T1 sequence (P35348 1-455 isoform P35348-4): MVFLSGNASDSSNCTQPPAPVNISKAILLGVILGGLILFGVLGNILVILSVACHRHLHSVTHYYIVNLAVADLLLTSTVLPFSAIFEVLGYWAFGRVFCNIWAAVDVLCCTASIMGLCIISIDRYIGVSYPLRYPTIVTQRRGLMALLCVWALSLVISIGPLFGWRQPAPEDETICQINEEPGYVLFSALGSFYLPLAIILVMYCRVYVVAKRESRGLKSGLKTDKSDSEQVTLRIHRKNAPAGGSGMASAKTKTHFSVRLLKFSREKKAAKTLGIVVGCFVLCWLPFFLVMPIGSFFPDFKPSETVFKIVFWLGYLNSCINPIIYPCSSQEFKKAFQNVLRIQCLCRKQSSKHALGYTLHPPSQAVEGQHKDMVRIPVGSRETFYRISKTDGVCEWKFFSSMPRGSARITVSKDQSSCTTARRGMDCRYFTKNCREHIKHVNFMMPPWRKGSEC
Experimental: (§1) α1-Adrenergic Receptor Binding Assay
(§2) Preparation of COS Cell Membranes
(§3) Membranes were prepared from COS-7 cells (African Green monkey kidney SV40-transformed cells) that had been transfected with one of the three α1-AR subtypes (Genbank accession number for the α1a subtype: AF013261; Genbank accession number for the α1b subtype: NM000679; Genbank accession number for the α1d subtype: NM000678) using the following method: COS cells from ten 100 mm tissue culture plates were scraped into a 5 mL volume of TE (a mixture of 50 mM Tris-HCl, 5 mM EDTA, pH 7.4). The cell suspension was disrupted with a Brinkman Polytron (at a setting of 8) for 10 sec. The disrupted cells were centrifuged at 1000×g for 10 min at 4° C. Supernatants were centrifuged at 34,500×g for 20 min at 4° C. The membrane pellets were suspended in a 2 mL volume of TNE (a mixture of 50 mM Tris-HCl, 5 mM EDTA and 150 mM NaCl at pH 7.4). An aliquot of the membrane suspension was stored at −70° C. until use. The protein concentration was determined using the BioRad “DC” protein assay kit following membrane solubilization with Triton X-100.
(§4) Radio-ligand Binding Assay
(§5) Triplicate determinations of radio-ligand binding in the presence of increasing concentrations of testing compound were made. The reagents were added to 96-well polypropylene plate wells. Each assay well contained 140 μL TNE, 25 μL ^125I-2-(β-4-hydroxyphenyl)ethylaminomethyltetralone (^125I-HEAT) (specific activity 2200 Ci/mmol, Dupont-New England Nuclear, 50 pM final), 10 μL testing compound dissolved in dimethyl sulfoxide (DMSO) (1 pM to 10 μM in half-log increments, final), and 25 μL appropriate α1-AR membrane subtype suspension in TNE (0.5 ng/μL for the α1a and α1b subtypes and 13 ng/μL for the α1d subtype). The plate was incubated at rt for 1 hr. The contents of the wells were filtered through a glass filter (type C) (GF/C) membrane Unifilter plate (Packard Instruments) using the Packard Filtermate cell harvester. The filter plates were dried in a vacuum oven for 30 min at 40° C. 25 μL Microscint 20 liquid scintillation fluid (Packard Instuments) was added to each well. The radioactive content was analyzed in the TopCount microplate scintillation counter (Packard Instruments).
(§6) The Ki values (in nM) shown in Table 1 were determined using GraphPad Prism software.

[3] = biological target: T2, α1b-AR (Homo sapiens, UniProt P35368); experiment: α1-Adrenergic receptor radio-ligand (125I-HEAT) binding assay, α1b subtype; conditions: membranes of transfected COS-7 cells, 125I-HEAT 50 pM
T2 construct: expressed in transfected cells; host or cells: COS-7 (African green monkey kidney) membranes
T2 sequence (P35368 1-520): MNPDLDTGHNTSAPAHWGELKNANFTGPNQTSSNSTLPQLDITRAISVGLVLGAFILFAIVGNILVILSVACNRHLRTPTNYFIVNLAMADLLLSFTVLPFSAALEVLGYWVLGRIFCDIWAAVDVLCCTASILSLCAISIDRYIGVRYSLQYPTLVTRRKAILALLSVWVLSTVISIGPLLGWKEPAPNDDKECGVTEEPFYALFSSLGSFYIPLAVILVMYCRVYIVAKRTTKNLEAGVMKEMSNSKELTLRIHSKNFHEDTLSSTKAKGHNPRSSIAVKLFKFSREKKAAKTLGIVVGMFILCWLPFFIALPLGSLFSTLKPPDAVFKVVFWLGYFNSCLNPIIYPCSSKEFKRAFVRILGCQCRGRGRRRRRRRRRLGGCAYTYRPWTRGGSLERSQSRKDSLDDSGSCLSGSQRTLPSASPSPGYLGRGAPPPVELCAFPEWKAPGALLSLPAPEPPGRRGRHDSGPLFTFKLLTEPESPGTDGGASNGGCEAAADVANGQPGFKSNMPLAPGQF
Experimental: as §1, §2, §3, §4, §5, §6

[4] = biological target: T3, α1d-AR (Homo sapiens, UniProt P25100); experiment: α1-Adrenergic receptor radio-ligand (125I-HEAT) binding assay, α1d subtype; conditions: membranes of transfected COS-7 cells, 125I-HEAT 50 pM
T3 construct: expressed in transfected cells; host or cells: COS-7 (African green monkey kidney) membranes
T3 sequence (P25100 1-572): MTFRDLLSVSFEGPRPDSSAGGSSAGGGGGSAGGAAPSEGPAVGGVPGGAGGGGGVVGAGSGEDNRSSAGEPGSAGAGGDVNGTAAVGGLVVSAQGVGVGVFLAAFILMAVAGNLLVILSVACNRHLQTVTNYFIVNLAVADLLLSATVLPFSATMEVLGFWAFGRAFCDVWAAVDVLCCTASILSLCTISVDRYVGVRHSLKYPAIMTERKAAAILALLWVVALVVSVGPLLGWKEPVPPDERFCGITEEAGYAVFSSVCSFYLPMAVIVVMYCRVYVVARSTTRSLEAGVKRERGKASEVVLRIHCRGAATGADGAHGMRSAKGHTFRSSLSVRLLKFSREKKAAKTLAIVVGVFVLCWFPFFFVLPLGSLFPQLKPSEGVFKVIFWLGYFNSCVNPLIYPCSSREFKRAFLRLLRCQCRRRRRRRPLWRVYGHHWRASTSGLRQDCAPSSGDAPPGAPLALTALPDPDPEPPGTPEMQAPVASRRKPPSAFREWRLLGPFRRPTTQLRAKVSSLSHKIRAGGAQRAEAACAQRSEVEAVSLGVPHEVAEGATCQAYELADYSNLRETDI
Experimental: as §1, §2, §3, §4, §5, §6

Row | Ki [2] [nM] | Ki [3] [nM] | Ki [4] [nM] | SMILES | selectivity for the α1a and α1d subtypes over the α1b subtype [1]
1 | – | – | – | CCOc1ccccc1OCCN[C@H](C)Cc1ccc(OC)c(S(N)(=O)=O)c1 [Tamsulosin] | about 15 fold
2 | 189 | 364 | 64 | COc1ccc(S(=O)(=O)N[C@H]2CC[C@@H](N3CCN(c4ncccc4OCC4CC4)CC3)CC2)cc1OC [Cpd 1, N-cis-{4-[4-(3-cyclopropylmethoxy-pyridin-2-yl)-piperazin-1-yl]-cyclohexyl}-3,4-dimethoxy-benzenesulfonamide] | –
3 | 61 | 112 | 19 | COc1ccc(S(=O)(=O)N[C@H]2CC[C@@H](N3CCN(c4ncccc4OC(C)C)CC3)CC2)cc1OC [Cpd 3, N-cis-{4-[4-(3-isopropoxy-pyridin-2-yl)-piperazin-1-yl]-cyclohexyl}-3,4-dimethoxy-benzenesulfonamide] | –
4 | 18.7 | 601 | 48.3 | COc1ccc(Cl)cc1S(=O)(=O)N[C@H]1CC[C@@H](N2CCN(c3ncccc3OCC3CC3)CC2)CC1 [Cpd 9, 5-chloro-N-cis-{4-[4-(3-cyclopropylmethoxy-pyridin-2-yl)-piperazin-1-yl]-cyclohexyl}-2-methoxy-benzenesulfonamide] | –
5 | 10.7 | 399 | 12.4 | COc1ccc(Cl)cc1S(=O)(=O)N[C@H]1CC[C@@H](N2CCN(c3ncccc3OC(C)C)CC2)CC1 [Cpd 5, 5-chloro-N-cis-{4-[4-(3-isopropoxy-pyridin-2-yl)-piperazin-1-yl]-cyclohexyl}-2-methoxy-benzenesulfonamide] | –
6 | 44.7 | 1860 | 15.3 | CC(C)Oc1cccnc1N1CCN([C@H]2CC[C@@H](NS(=O)(=O)c3cc(Cl)ccc3F)CC2)CC1 [Cpd 7, 5-chloro-2-fluoro-N-cis-{4-[4-(3-isopropoxy-pyridin-2-yl)-piperazin-1-yl]-cyclohexyl}-benzenesulfonamide] | –
7 | 35.7 | 952 | 43.6 | O=S(=O)(N[C@H]1CC[C@@H](N2CCN(c3ncccc3OCC3CC3)CC2)CC1)c1cc(Cl)ccc1F [Cpd 11, 5-chloro-N-cis-{4-[4-(3-cyclopropylmethoxy-pyridin-2-yl)-piperazin-1-yl]-cyclohexyl}-2-fluoro-benzenesulfonamide] | –
